In US20240366560A1, “SMALL MOLECULE TREATMENT OF FATTY LIVER DISEASE AND HCC” (ScandiEdge Therapeutics AB, priority 2021, published 2024):

What was measured:
PKLR [1] = experiment: PKLR protein level by western blot in steatosis-induced HepG2, 7-day drug treatment; assay type: cell-based; conditions: steatosis-induced HepG2, 7 days of drug treatment, P<0.05, FIG. 2B
Method: (§1) WT HepG2 was included in this study and cultured by Roswell Park Memorial Institute (RPMI, R2405, Sigma Aldrich) 1640 Medium with 10% fetal bovine serum (FBS) and 1% penicillin-streptomycin (PS). To induce a steatosis model into WT HepG2 cells, high glucose Dulbecco's Modified Eagle Media (DMEM, D0822/D5671, Sigma-Aldrich) containing 10% FBS and 1% PS was used as medium for one week, together with 10 μg/mL insulin and 10 μM T0901317. All of cells were incubated in the incubator with 5% CO2 and 37° C. (Thermo SCIENTIFIC). Fresh medium was provided every two days.
(§2) As for drug-screening, different numbers of HepG2 cells were seeded for distinct experiments. More in details, 40,000 cells and 500,000 cells were used for 2-day-drug treatment in 96-well-plate and 6-well plate, respectively, while 80,000 cells and 300,000 cells were used for one-week drug treatment in 96-well plate and 6-well plate, respectively. Detailed drug dosages could be found in FIG. 5. Fresh medium was provided every two days.
(§3) Protein content levels were detected by western blot. After the respective treatment of drugs, the cell pellets were lysed in cell lytic M, followed by protein extraction from supernatant (10 min, 13,000r/min centrifuge). Extracted cell lysate was stored in −20° C. Proteins were quantified through Bovine albumin serum (BAS) standard curve with protein assay dye reagent (BIO-RAD). The proteins were separated by SDS-PAGE with 100v in 90 min by mini-protein TGX precast gels (4-15%, 15 wells, 15 μl/well, BIO-RAD), and then transfer to Mini PVDF transfer package through transfer system (Transfer-Turbo, BIO-RAD). After 30 min blocking with 5% skim milk in cold room (4° C.) and washing with TBST, membrane was cut by the size of interested proteins. Primary antibodies were added into the corresponding membrane sections for overnight binding. Then the membranes were washed with TBST, and the secondary antibodies were incubated for 1 h in cold room. The following antibody were used: (Goat pAb to Rb lg, ab205718, abcam; Rb pAb to beta-actin, ab8227, abcam; anti-pklr, HPA006653, SIGMA; Rb pAb to fatty acid synthase, ab99539, abcam). The bindings were imaged by immunostaining and machine (ImageQuant LAS 500). All antibodies were purchased from Abcam online, and βactin was used as global normalized protein. After measurement, the strength of signal for each protein was quantified by ImageJ. The background noise was removed, and all results were normalized by the levels of β-actin.
(§4) To further analyse the effect of these drugs on lipid accumulation via the DNL pathway, steatosis was induced to HepG2 by treating the cells with high glucose medium (DMEM), insulin and T0901317 (Hansmannel et al., 2006). […] Therefore, the effects of these two drugs on the de novo synthesis of lipids were investigated based on the steatosis-induced HepG2 model. […] Taken together, it was shown that BX-912 and JNK-IN-5A effectively alleviate the protein expression of PKLR and FASN as well as TG levels in HepG2 cell lines, and thus, it was decided to perform in vivo evaluations to test the effect of these two drugs.

PKLR [2] = experiment: PKLR protein level by western blot in HepG2, 2-day drug treatment; assay type: cell-based; conditions: HepG2, two days of treatment, dosages per FIG. 5, P<0.05, FIG. 2A
Method: WT HepG2 was included in this study and cultured by Roswell Park Memorial Institute (RPMI, […], Sigma Aldrich) 1640 Medium with 10% fetal bovine serum (FBS) and 1% penicillin-streptomycin (PS). To induce a steatosis model into WT HepG2 cells, high glucose Dulbecco's Modified Eagle Media (DMEM, […]/[…], Sigma-Aldrich) containing 10% FBS and 1% PS was used as medium for one week, together with 10 μg/mL insulin and 10 μM T0901317. All of cells were incubated in the incubator with 5% CO2 and 37° C. (Thermo […]). Fresh medium was provided every two days. As for drug-screening, different numbers of HepG2 cells were seeded for distinct experiments. More in details, 40,000 cells and 500,000 cells were used for 2-day-drug treatment in 96-well-plate and 6-well plate, respectively, while 80,000 cells and 300,000 cells were used for one-week drug treatment in 96-well plate and 6-well plate, respectively. […] Fresh medium was provided every two days. Protein content levels were detected by western blot. After the respective treatment of drugs, the cell pellets were lysed in cell lytic M, followed by protein extraction from supernatant (10 min, 13,000r/min centrifuge). Extracted cell lysate was stored in -20° C. Proteins were quantified through Bovine albumin serum (BAS) standard curve with protein assay dye reagent (BIO-RAD). The proteins were separated by SDS-PAGE with 100v in 90 min by mini-protein TGX precast gels (4-15%, 15 wells, 15 μl/well, BIO-RAD), and then transfer to Mini PVDF transfer package through transfer system (Transfer-Turbo, BIO-RAD). After 30 min blocking with 5% skim milk in cold room (4° C.) and washing with TBST, membrane was cut by the size of interested proteins. Primary antibodies were added into the corresponding membrane sections for overnight binding. Then the membranes were washed with TBST, and the secondary antibodies were incubated for 1 h in cold room. The following antibody were used: (Goat pAb to Rb lg, ab205718, abcam; Rb pAb to beta-actin, ab8227, abcam; […]; Rb pAb to fatty acid synthase, ab99539, abcam). The bindings were imaged by immunostaining and machine (ImageQuant LAS 500). All antibodies were purchased from Abcam online, and βactin was used as global normalized protein. After measurement, the strength of signal for each protein was quantified by ImageJ. The background noise was removed, and all results were normalized by the levels of β-actin. To determine the inhibitory effects of these drugs on the expression level of PKLR, HepG2 was selected as the in vitro model for coherence. […] HepG2 cells were treated with these drugs for two days with different dosages due to their potential cellular toxicities (FIG. 5), and the PKLR protein level was the measured by western blotting. The level of protein expression of PKLR of the drug-treated groups was compared to that of the Ctrl group after normalizing with β-actin.

FASN [3] = experiment: FASN protein level by western blot in steatosis-induced HepG2, 7-day drug treatment; assay type: cell-based; conditions: steatosis-induced HepG2, 7 days of drug treatment, P<0.05, FIG. 2C
Method: as §1, §2, §3, §4

FASN [4] = conditions: high-glucose-cultured HepG2 cell model (Hosseini et al., 2020); cited from earlier work
[5] = tested on: genes controlling fatty acid biosynthesis and Pcsk9; conditions: in vitro (Poirier et al., 2014); cited from earlier work

Row | Compound | protein expression level of PKLR (PKLR [1]) | protein expression of PKLR vs Ctrl, normalized with β-actin (PKLR [2]) | protein expression level of FASN (FASN [3]) | expression level of Fasn (FASN [4]) | expression level of a list of genes controlling fatty acid biosynthesis and Pcsk9 [5]
1 | N#CC(c1ccnc(NCCc2cccnc2)n1)c1nc2ccccc2s1 (stereo not drawn) [AS-601245] | significantly decreased | significantly down-regulated |  |  | 
2 | PF-477736 | significantly decreased |  | significantly reduced |  | 
3 | CCCS(=O)(=O)Nc1ccc(F)c(C(=O)c2c[nH]c3ncc(Cl)cc23)c1F [PLX-4720] | significantly decreased | significantly down-regulated | significantly reduced |  | 
4 | CC(C)(C)c1nc(-c2cccc(NS(=O)(=O)c3c(F)cccc3F)c2F)c(-c2ccnc(N)n2)s1 [Dabrafenib] | significantly decreased |  | significantly reduced |  | 
5 | O=C(NC(NC(=S)Nc1ccc(F)c([N+](=O)[O-])c1)C(Cl)(Cl)Cl)C(c1ccccc1)c1ccccc1 (stereo not drawn) [CGK-733] |  | significantly down-regulated |  |  | 
6 | Nc1ncn([C@@H]2O[C@H](CO)[C@@H](O)[C@H]2O)c(=O)n1 [Azacitidine] | significantly decreased | significantly down-regulated | significantly reduced | decreases | reduces
